Source: patent US20240100038A1, “USE OF THE AXL INHIBITOR SLC-391 AS ANTIVIRAL THERAPEUTIC AGENT” (SignalChem Lifesciences Corporation, priority 2021, published 2024)
Where two headings read alike, the source gives them in different places.

What was measured:
[1] = system: Salmonella tester strain TA98; test: Ames screening test, TA98; assay type: cell-based; settings: TA98, with and without liver S9 metabolic activation
Source text: (§1) In genotoxicity screening studies, SLC-391 was negative in Salmonella tester strains TA98 and TA100 (Ames screening test) with and without liver S9 metabolic activation.

Aurora C = Aurora C (Homo sapiens, UniProt Q9UQB9); test: Radiometric phosphotransferase assay, panel of 320 protein kinases; assay type: biochemical
Source text: (§2) The selectivity of SLC-391 was further evaluated against a panel of 320 protein kinases from the human kinome using a radiometric phosphotransferase assay.

EPHA6 = EPHA6 (Homo sapiens, UniProt Q9UF33); test: as above; assay type: biochemical
Sequence of EPHA6 (Q9UF33 23-1036): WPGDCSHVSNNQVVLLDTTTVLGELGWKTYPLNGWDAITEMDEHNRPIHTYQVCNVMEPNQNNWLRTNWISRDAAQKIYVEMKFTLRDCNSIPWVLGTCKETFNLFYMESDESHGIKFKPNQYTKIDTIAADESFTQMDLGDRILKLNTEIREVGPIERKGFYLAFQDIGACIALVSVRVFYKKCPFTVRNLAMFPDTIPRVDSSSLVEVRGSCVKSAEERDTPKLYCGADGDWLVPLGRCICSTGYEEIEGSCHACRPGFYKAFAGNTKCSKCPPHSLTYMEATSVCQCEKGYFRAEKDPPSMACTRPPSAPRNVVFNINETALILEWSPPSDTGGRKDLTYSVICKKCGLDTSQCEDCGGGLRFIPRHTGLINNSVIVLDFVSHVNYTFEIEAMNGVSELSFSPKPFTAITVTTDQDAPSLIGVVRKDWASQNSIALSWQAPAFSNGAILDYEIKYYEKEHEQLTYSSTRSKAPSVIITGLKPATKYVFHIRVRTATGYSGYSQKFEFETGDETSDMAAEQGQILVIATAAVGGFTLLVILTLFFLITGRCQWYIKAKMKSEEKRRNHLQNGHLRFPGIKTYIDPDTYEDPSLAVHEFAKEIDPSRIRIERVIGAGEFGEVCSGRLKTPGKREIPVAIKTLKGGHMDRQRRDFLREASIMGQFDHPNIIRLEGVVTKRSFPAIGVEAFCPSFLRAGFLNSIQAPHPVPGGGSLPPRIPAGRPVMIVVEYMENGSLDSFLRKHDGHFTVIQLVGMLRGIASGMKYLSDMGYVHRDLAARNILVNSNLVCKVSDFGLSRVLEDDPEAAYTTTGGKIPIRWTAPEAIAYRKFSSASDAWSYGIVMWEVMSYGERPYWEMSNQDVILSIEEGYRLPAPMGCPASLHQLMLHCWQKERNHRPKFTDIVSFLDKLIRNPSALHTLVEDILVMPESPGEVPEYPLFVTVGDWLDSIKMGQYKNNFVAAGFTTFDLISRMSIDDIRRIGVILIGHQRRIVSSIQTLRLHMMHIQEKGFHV
Source text: as §2

ALK1 = ALK1 (Homo sapiens, UniProt P37023); test: as above; assay type: biochemical
Source text: as §2

ROS1 = ROS1 (Homo sapiens, UniProt P08922); test: as above; assay type: biochemical
Source text: as §2

RET = RET (Homo sapiens, UniProt P07949); test: as above; assay type: biochemical
Source text: as §2

c-MET = c-MET (Homo sapiens, UniProt P08581); test: as above; assay type: biochemical
Sequence of c-MET (P08581 25-1390): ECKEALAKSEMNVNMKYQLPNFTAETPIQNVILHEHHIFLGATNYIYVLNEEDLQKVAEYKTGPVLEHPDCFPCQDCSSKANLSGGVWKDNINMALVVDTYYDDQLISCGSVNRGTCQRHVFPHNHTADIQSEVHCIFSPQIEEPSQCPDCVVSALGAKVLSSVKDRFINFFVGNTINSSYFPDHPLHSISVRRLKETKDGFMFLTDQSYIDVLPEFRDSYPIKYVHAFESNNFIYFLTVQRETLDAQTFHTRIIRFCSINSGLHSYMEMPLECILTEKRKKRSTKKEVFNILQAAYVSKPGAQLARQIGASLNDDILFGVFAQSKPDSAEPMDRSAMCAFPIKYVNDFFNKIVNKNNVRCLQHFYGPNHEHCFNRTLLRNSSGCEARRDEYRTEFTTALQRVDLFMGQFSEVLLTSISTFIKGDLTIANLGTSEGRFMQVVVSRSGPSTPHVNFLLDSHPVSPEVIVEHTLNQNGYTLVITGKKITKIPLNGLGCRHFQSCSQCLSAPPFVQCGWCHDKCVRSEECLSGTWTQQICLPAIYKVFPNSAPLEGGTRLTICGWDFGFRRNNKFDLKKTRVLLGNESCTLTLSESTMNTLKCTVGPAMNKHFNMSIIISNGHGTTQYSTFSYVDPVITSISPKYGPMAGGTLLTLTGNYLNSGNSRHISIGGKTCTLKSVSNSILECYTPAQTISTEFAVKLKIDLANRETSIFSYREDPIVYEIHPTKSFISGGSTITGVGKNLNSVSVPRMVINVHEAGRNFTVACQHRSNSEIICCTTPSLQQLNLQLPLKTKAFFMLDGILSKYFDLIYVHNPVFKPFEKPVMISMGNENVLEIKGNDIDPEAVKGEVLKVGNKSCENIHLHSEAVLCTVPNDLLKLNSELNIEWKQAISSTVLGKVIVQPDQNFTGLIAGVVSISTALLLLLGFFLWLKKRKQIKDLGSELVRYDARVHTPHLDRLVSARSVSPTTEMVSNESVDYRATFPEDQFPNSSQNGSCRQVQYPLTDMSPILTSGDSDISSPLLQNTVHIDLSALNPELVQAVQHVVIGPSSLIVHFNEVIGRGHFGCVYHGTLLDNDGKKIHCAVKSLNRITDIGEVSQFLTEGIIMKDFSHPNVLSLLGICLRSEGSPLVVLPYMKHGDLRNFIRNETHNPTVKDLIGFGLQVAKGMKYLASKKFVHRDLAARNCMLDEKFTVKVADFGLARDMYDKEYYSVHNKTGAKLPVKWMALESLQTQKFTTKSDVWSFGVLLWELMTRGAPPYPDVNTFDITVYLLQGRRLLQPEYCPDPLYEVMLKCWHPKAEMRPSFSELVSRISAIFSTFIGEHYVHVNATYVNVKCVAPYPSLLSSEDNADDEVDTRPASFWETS
Source text: as §2

NUAK1 = NUAK1 (Homo sapiens, UniProt O60285); test: as above; assay type: biochemical
Sequence of NUAK1 (O60285 whole entry): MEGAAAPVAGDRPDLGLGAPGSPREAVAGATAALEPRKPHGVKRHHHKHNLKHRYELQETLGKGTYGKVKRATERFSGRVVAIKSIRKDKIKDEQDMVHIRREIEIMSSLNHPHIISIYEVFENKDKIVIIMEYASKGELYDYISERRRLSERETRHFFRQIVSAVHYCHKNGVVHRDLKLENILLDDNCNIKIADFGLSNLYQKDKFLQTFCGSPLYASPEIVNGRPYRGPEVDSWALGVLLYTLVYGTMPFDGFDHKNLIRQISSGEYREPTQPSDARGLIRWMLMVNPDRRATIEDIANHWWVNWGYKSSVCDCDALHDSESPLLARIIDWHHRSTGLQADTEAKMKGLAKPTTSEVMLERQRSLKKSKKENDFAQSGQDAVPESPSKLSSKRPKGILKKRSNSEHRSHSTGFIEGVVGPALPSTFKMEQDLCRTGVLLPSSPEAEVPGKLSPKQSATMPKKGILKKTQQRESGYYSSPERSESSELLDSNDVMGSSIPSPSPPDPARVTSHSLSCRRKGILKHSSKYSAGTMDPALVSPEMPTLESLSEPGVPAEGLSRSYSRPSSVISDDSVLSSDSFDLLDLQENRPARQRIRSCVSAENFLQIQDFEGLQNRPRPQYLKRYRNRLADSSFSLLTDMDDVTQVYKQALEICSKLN
Source text: as §2

AXL [2] = biological target: T1, AXL (Homo sapiens, UniProt P30530); test: In vitro BaF3 cell assay, panel of 93 receptor tyrosine kinases; assay type: cell-based; design: expressed in transfected cells; host or cells: BaF3; settings: at 100 nM
T1 sequence (P30530 26-894): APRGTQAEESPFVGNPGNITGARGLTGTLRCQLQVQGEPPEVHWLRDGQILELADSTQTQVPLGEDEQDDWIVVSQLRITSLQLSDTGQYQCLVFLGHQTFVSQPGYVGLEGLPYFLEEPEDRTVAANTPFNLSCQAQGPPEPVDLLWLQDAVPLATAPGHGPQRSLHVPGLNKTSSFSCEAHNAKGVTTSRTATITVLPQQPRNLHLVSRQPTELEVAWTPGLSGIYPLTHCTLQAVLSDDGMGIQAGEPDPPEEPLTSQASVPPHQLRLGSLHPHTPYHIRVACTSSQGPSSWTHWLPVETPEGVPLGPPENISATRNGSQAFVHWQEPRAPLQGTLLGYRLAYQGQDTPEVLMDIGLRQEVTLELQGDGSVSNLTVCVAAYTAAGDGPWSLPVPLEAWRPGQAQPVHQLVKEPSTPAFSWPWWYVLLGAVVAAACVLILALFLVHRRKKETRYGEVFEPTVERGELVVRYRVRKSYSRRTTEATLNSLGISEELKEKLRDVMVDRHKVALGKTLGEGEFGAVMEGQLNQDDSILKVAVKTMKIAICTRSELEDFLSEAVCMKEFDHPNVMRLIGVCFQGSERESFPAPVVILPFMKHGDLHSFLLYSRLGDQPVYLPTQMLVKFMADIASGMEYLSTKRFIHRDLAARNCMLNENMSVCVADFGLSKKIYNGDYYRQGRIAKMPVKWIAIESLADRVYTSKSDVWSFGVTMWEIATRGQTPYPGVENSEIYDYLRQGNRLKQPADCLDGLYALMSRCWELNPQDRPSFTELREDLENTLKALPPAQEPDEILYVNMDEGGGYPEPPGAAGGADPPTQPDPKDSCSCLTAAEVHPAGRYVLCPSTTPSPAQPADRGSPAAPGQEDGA

[3] = In vivo rat micronucleus assay; settings: 70 mg/kg/day (highest dose)
[4] = system: Gas6-induced phosphorylation of Akt; test: Inhibition of Gas6-induced phosphorylation of Akt in A549; assay type: cell-based; settings: human NSCLC cell line A549
A549 cells = test: Anchorage-independent cell proliferation; assay type: cell-based, human; settings: at 1 μM in A549 cells
A549 cell invasion = test: Cell invasion; assay type: cell-based; settings: Homo sapiens
in vitro [5] = settings: human
influenza virus (Flu A) = assay type: cell-based; settings: for Fold of virus reduction: compared with virus control
MER [6] = biological target: T2, MER (Homo sapiens, UniProt Q12866); test: MER kinase inhibition; assay type: biochemical
T2 sequence (Q12866 21-999): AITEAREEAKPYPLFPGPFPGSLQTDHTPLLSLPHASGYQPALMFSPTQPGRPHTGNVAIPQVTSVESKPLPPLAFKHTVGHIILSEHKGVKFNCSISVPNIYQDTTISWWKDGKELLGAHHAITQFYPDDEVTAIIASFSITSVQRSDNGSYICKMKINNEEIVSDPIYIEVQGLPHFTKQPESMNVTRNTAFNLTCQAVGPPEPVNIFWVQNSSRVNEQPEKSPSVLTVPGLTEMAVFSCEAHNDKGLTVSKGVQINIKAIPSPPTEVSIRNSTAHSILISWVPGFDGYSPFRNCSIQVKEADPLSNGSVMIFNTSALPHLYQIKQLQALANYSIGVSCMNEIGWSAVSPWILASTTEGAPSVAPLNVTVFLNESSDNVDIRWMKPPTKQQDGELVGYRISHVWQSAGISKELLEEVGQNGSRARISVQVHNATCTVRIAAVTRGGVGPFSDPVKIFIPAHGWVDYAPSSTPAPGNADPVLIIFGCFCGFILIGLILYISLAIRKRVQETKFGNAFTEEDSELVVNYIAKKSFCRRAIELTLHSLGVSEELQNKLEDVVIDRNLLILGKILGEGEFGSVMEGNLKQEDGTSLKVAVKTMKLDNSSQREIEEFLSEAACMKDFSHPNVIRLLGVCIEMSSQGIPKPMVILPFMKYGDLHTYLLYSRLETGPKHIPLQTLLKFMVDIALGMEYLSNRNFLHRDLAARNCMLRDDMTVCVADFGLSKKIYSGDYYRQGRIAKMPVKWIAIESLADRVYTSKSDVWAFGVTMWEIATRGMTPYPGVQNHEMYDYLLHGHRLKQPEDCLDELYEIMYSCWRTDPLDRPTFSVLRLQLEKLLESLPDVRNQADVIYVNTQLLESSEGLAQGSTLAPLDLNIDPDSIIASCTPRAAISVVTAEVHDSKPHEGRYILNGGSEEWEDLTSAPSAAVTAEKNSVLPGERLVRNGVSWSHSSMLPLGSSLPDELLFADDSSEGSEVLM
Source text: as §2

[7] = Phase I study in subjects with solid tumors (SLC-391-101); settings: clinical drug product, oral
[8] = 28-day oral gavage GLP toxicology study in Beagle dogs
in vivo = settings: both, Sprague-Dawley, rat
[9] = system: human influenza virus (FluAPR834); settings: Flu A, RPMI2650 cells
FGFR3 = biological target: T3, FGFR3 (Homo sapiens, UniProt P22607); test: In vitro BaF3 cell assay, panel of 93 receptor tyrosine kinases; assay type: cell-based; settings: at 100 nM
T3 construct: expressed in transfected cells; host or cells: BaF3

in vitro [10] = settings: human; remark: listed apart in the source
[11] = system: Salmonella tester strain TA100; test: Ames screening test, TA100; assay type: cell-based; settings: TA100, with and without liver S9 metabolic activation
Source text: as §1

[12] = system: SARS-CoV-2 spike protein binding to ACE2; assay type: cell-based, SARS-CoV-2 / human; settings: 1 μM, CHO-hACE2 cells, luciferase
[13] = 28-day oral gavage GLP toxicology study in Sprague-Dawley rats
[14] = Flowscreen genotoxicity assay; assay type: cell-based
SARS-CoV-2 [15] = assay type: cell-based; settings: Vero E6 cells
VEGFR1 = biological target: T4, VEGFR1 (Homo sapiens, UniProt P17948); test: In vitro BaF3 cell assay, panel of 93 receptor tyrosine kinases; assay type: cell-based; settings: at 100 nM
T4 construct: expressed in transfected cells; host or cells: BaF3

A549 = test: Cell migration; assay type: cell-based, human; settings: at 1 μM
4T1 = test: Cellular proliferation, 4T1; assay type: cell-based; settings: Mus musculus
tumor growth = test: In vivo tumor growth inhibition, oral administration
Source text: (§3) Significant in vivo pharmacology studies for SLC-391 have been completed in support of its oncology indication. The bioavailability of SLC-391 in vivo when administered orally (PO) (twice-daily [BID] and once-daily [QD]) were studied.

[16] = system: human influenza virus (FluAPR834); test: microbe, parasite or virus in culture; settings: unidentified influenza virus, RPMI-2650, in Homo sapiens, 96 h, read-out: EC50 (inhibit CPE by 50%)
MER [17] = biological target: T2, MER; test: In vitro BaF3 cell assay, panel of 93 receptor tyrosine kinases; assay type: cell-based; design: expressed in transfected cells; host or cells: BaF3; settings: at 100 nM
TYRO3 = TYRO3 (Homo sapiens, UniProt Q06418); test: TYRO3 kinase inhibition; assay type: biochemical
Source text: as §2

hERG = hERG (Homo sapiens, UniProt Q12809); test: Standard hERG assay; assay type: biochemical
AXL [18] = biological target: T1, AXL; test: AXL kinase inhibition; assay type: biochemical
Source text: as §2

K562 = test: Cellular proliferation, K562; assay type: cell-based; settings: Homo sapiens
[19] = in vivo, po
phosphorylated Akt = test: Phosphorylated Akt in tumor xenograft samples; assay type: in vivo; settings: oral administration
Source text: as §3

MER [20] = settings: cultured cell assays; cited from earlier work
[21] = system: virus infection of wild type bone marrow-derived dendritic cells; settings: wild type bone marrow-derived dendritic cells (Bhattacharyya 2013); cited from earlier work
AXL [22] = settings: cultured cell assays; cited from earlier work
Ebola virus = settings: animal models (Dowall 2016); cited from earlier work
ZEB1 = settings: Stewart 2020; cited from earlier work
SARS-CoV-2 [23] = settings: cited from earlier work
[24] = 28-day oral gavage, Beagle dogs

For `Nc1ncc(-c2cnn(C3CCNCC3)c2)cc1-c1nnc(CC2CC2)o1` [SLC-391, 3-(5-(cyclopropylmethyl)-1,3,4-oxadiazol-2-yl)-5-(1-(piperidin-4-yl)-1H-pyrazol-4-yl)pyridin-2-amine], the “Ames screening test result” value [1] was “negative”, the IC50 (Aurora C) was 51 nM and the IC50 (EPHA6) was 45 nM. It also gave an IC50 (ALK1) of 31 nM, an IC50 (ROS1) of 23 nM and an IC50 (RET) of 28 nM. It also gave an IC50 (c-MET) of 12 nM, an IC50 (NUAK1) of 62 nM and an inhibition at 0.1 µM (AXL [2]) of 69%. For the same molecule, the “genotoxic response, rat micronucleus assay” value [3] was “potential genotoxic response was observed”, the IC50 [4] was 290 nM and the “impairment of anchorage-independent cell proliferation” value (A549 cells) was “complete inhibition”. It also gave an inhibition at 0.2 µM (A549 cell invasion) of roughly 75%, a viability at 0.003 µM (in vitro [5]) of 100% and a viability at 0.4 µM (in vitro [5]) of 95%. For the same molecule, the viability at 10 µM (in vitro [5]) was 80%, the TCID50/mL (influenza virus (Flu A); 0.003 uM) was 19999 TCID50/mL and the “Fold of virus reduction” value (influenza virus (Flu A); 0.003 uM) was 34.8 fold. For the same molecule, the TCID50/mL (influenza virus (Flu A); 0.4 uM) was 9290 TCID50/mL, the “Fold of virus reduction” value (influenza virus (Flu A); 0.4 uM) was 74.9 fold and the TCID50/mL (influenza virus (Flu A); 10 uM) was 731 TCID50/mL. For the same molecule, the “Fold of virus reduction” value (influenza virus (Flu A); 10 uM) was 952.9 fold, the IC50 (MER [6]) was 63.5 nM and the “tolerability in human subjects” value [7] was “well tolerated”. The HNSTD ([8]; 28-day dog GLP toxicology study, as defined in ICH S9) was 6 mg/kg/day, the “effects on heart rate (HR)” value [8, 24] was “no effects” and the “effects on respiratory parameters” value [8, 24] was “no SLC-391-related effects”. The “effects on morphology of P-QRS-T complexes, PR interval, QT, QTc intervals, QRS complex duration” value ([8]; 28-day oral gavage, Beagle dogs, males and females) was “no observable effects”, the “human equivalent dose (HED) of dog HNSTD” value ([8]; from 6 mg/kg/day in dog) was 3.3 mg/kg and the NOAEL at 28 day (in vivo) was 30 mg/kg/day. The “therapeutic index (TI), TC50 divided by EC50” value [9] was “above 71.4”, the inhibition at 0.1 µM (FGFR3) was 64% and the CC50 (in vitro [10]) was greater than 10000 nM. The “Ames screening test result” value [11] was “negative”, the “neutralization of SARS-CoV-2 pseudovirus” value [12] was “completely neutralize” and the severe toxic dose ([13]; 28-day rat GLP study, highest dose tested) was 70 mg/kg/day. The “human equivalent dose (HED) of rat severe toxic dose” value ([13]; from 70 mg/kg/day in rat) was 11.3 mg/kg, the Flowscreen assay classification [14] was “potentially genotoxic with an aneugenic mechanism of action” and the “inhibition of SARS-CoV-2 infection (qPCR cycles)” value (SARS-CoV-2 [15]; 0.01 μM, for 24 hours) was “effectively inhibit the viral infection”. For the same molecule, the “inhibition of SARS-CoV-2 infection (qPCR cycles)” value (SARS-CoV-2 [15]; 1 μM, up to 72 hours) was “high degree of viral inhibition”, the inhibition at 0.1 µM (VEGFR1) was 64% and the “reduction of cell migration” value (A549) was “less than 40%”. For the same molecule, the IC50 (4T1) was 1050 nM, the “tumor growth inhibition (TGI)” value (tumor growth; 50 mg/kg BID) was 60% and the “tumor growth inhibition (TGI)” value (tumor growth; 75 mg/kg BID) was 67%. It also gave an EC50 [16] of 140 nM, an inhibition at 0.1 µM (MER [17]) of 61% and an IC50 (TYRO3) of 42.3 nM. The IC50 (hERG) was greater than 30000 nM, the IC50 (AXL [18]) was 9.6 nM and the IC50 (K562) was 3450 nM. The “exposure in human subjects” value [19] was “excellent exposure” and the “reduction in levels of phosphorylated Akt” value (phosphorylated Akt) was 41%.

For `CCOc1ccn(-c2ccc(F)cc2)c(=O)c1C(=O)Nc1ccc(Oc2ccnc(N)c2Cl)c(F)c1` [BMS-777607], the “concentrations effectively blocking Gas6-triggered receptor activation” value (MER [20]) is given as 30 to 3600 nM, the “susceptibility of treated dendritic cells to virus infection” value [21] is given as “much less susceptible to virus infection than untreated cells” and the “concentrations effectively blocking Gas6-triggered receptor activation” value (AXL [22]) is given as 30 to 3600 nM.

In the case of `Nc1nc(Nc2ccc3c(c2)CC[C@@H](N2CCCC2)CC3)nn1-c1cc2c(nn1)-c1ccccc1CCC2` [BGB324], the “effect against lethal Ebola virus infection” value (Ebola virus) is given as “had effect against lethal Ebola virus infection”, the “effect on ZEB1” value (ZEB1) is given as “downregulates ZEB1” and the “protection from SARS-CoV-2-induced cytopathic effect” value (SARS-CoV-2 [23]; preliminary in vitro studies) is given as “protect cells from SARS-CoV-2-induced cytopathic effect”. The “inhibition of SARS-CoV-2 infection of cells” value (SARS-CoV-2 [23]; subsequent studies) was “potently inhibit SARS-CoV-2 infection of cells”.
